Test results published in ChEMBL document CHEMBL1201862, “PubChem BioAssay data set” (2004).
Several values for one entry are separate records, joined by “and”; a condition that tells them apart may be missing. Identical values can stand only once. Activity calls are given as the source filed them. Unless noted, the rule behind the calls is not given here.

What was measured:
CHO = assay: cytotoxicity in TLR9-MyD88 CHO cells, dose response, cytotoxicity control for TLR9-MyD88 binding inhibitor project, cell-based, luminescence (AID 588339); assay type: functional, hamster; conditions: Cricetulus griseus;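 also: CHO cells stably coexpressing TLR9 and MyD88 fusions from primary screen; compound exposure lasted 48 hours before viability readout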
Beta-lactamase [1] = target: Beta-lactamase (Pseudomonas aeruginosa, UniProt Q79MP6);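 also: biochemical dose-response test of metallo-beta-lactamase enzyme inhibition, read out by epi-absorbance; purified recombinant IMP-1 metallo-beta-lactamase with nitrocefin as substrate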
Chain of Beta-lactamase (Pseudomonas aeruginosa, UniProt Q79MP6) (Q79MP6 whole entry): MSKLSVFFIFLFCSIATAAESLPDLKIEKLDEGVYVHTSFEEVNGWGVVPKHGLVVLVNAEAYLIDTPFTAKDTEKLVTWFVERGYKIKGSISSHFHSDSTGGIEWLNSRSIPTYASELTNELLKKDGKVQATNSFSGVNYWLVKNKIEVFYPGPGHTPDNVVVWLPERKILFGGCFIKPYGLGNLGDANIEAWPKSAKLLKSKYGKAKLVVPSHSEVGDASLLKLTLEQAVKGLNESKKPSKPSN

Beta Lactamase [2] = target: T1, Beta Lactamase (Pseudomonas aeruginosa, UniProt Q932Y6);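 also: confirmatory high-throughput screen measuring VIM-2 metallo-beta-lactamase inhibition by epi-absorbance in dose response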
T1 sequence (Q932Y6 whole entry): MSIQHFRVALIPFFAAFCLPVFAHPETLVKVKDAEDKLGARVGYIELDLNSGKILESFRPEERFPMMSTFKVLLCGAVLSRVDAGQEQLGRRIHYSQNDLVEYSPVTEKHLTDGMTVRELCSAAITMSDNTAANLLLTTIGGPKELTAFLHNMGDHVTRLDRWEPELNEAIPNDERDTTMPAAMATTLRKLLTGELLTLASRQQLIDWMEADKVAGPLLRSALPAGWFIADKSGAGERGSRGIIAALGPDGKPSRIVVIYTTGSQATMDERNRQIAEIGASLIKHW

Beta Lactamase [3] = target: T1, Beta Lactamase; assay: beta-lactamase reporter inhibitor potency, dose response, artefact control for TLR9-MyD88 binding inhibitor project, BLA reporter cells, FRET fluorescence (AID 588341); assay type: cell-based;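 also: cell based assay in CHO-K1 cells stably expressing beta-lactamase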
Beta-lactamase [4] = target: Beta-lactamase (Salmonella choleraesuis (strain SC-B67), UniProt Q5J463)
Chain of Beta-lactamase (Salmonella choleraesuis (strain SC-B67), UniProt Q5J463) (Q5J463 whole entry): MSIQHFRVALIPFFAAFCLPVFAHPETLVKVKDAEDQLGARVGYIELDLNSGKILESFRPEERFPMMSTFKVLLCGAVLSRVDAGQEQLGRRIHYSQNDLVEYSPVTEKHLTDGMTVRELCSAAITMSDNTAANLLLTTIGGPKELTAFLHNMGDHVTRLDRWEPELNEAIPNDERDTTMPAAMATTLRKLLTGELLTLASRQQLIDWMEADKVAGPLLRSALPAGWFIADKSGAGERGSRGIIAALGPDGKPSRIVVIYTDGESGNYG

[5] = target: Latent membrane protein 1 (Human herpesvirus 4 (strain B95-8), UniProt P03230); assay: TES1-eGFP NF-kB reporter inhibition versus Tet-On dsRED, dose response, selectivity assay for LMP1 NF-kB inhibitor project, imaging, HEK293T, dual-color eGFP/dsRED, cherry-picks (AID 588398); assay type: functional, cell-based
Chain of Latent membrane protein 1 (P03230 whole entry, the tested form may be a part): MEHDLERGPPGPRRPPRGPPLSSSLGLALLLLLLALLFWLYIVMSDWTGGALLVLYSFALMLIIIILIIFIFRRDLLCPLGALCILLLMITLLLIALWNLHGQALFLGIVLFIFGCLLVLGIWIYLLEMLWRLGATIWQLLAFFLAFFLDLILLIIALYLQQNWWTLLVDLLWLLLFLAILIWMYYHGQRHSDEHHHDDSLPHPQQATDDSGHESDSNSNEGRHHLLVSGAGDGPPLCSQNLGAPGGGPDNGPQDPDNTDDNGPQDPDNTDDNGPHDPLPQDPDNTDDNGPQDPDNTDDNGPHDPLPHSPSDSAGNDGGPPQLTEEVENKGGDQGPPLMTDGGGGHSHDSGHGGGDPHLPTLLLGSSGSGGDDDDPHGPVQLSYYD

[6] = target: T2, Oxysterols receptor LXR-beta (Homo sapiens, UniProt P55055); assay type: functional, cell-based;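 also: agonist activity at LXR measured by a cell-based luminescence readout across a dose range, run as a counterscreen for daf-12 agonists; HEK293 cells with Gal4-LXR fusion and GAL4-driven luciferase reporter; potency for activation of Gal4-LXR reporter so compounds are agonists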
T2 sequence (P55055 whole entry): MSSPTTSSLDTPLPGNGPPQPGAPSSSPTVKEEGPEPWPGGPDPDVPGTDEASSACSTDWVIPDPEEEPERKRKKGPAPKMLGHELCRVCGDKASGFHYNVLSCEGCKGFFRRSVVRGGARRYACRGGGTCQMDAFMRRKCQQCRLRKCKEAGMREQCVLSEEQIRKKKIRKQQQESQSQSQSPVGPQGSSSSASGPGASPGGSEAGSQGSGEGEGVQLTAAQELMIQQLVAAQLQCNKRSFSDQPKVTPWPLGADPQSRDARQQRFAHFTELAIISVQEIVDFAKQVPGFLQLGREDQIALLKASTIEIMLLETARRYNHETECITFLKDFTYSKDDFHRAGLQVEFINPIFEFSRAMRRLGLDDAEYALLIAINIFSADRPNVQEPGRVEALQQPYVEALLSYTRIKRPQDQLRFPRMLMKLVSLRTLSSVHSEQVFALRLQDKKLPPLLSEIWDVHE

HEK293 = assay: inhibitors of LMP1-driven NF-kB reporter, dose response, cell-based, HEK293, luciferase, cherry-pick (AID 588343); assay type: functional; conditions: Homo sapiens
[7] = KCNQ1/KCNE1 channel current potentiation, dose response, selectivity assay for KCNQ2 activator project, automated patch clamp, CHO cells (AID 493042); assay type: functional
[8] = target: Potassium voltage-gated channel subfamily KQT member 2 (Rattus norvegicus, UniProt O88943); assay: Mode of action assay-Dose response assay for compounds that activate KCNQ2 potassium channels on automated patch clamp. [Related pubchem assays (depositor defined):AID2239, AID2258, AID2287, AID493113]; assay type: functional
Chain of Potassium voltage-gated channel subfamily KQT member 2 (O88943 whole entry): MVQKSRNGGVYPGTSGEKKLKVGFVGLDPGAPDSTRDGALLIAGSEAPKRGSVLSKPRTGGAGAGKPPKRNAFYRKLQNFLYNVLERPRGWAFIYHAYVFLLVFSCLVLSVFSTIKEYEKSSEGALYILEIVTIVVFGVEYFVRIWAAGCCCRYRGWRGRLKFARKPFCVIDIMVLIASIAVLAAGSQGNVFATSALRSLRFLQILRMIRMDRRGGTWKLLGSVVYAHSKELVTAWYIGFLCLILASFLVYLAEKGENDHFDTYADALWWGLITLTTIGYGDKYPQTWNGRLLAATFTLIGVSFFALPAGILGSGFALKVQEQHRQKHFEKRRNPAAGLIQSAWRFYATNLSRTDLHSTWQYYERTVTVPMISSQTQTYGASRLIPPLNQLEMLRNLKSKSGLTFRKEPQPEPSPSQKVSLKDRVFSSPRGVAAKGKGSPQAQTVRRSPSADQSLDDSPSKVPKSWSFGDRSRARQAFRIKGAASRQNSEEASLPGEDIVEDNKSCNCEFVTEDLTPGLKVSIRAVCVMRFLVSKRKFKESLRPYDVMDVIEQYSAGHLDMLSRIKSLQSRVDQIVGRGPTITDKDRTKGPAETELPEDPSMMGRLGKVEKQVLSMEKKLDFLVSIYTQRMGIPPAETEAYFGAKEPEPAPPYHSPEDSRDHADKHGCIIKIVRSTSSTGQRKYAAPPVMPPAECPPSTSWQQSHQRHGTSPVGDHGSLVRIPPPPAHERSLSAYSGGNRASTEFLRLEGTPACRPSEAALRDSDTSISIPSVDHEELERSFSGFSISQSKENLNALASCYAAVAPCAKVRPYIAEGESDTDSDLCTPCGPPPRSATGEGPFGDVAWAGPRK

[9] = target: Potassium voltage-gated channel subfamily KQT member 2/member 3 (Rattus norvegicus, UniProt O88943+O88944); assay: Mode of action assay-Dose response assay for KCNQ2 activators in the KCNQ2/KCNQ3 co-expressing cells on automated patch clamp. [Related pubchem assays (depositor defined):AID2239, AID2258, AID2287]; assay type: functional
Chain of Potassium voltage-gated channel subfamily KQT member 2/member 3 (O88943 whole entry): as above
Chain of Potassium voltage-gated channel subfamily KQT member 2/member 3 (O88944 whole entry): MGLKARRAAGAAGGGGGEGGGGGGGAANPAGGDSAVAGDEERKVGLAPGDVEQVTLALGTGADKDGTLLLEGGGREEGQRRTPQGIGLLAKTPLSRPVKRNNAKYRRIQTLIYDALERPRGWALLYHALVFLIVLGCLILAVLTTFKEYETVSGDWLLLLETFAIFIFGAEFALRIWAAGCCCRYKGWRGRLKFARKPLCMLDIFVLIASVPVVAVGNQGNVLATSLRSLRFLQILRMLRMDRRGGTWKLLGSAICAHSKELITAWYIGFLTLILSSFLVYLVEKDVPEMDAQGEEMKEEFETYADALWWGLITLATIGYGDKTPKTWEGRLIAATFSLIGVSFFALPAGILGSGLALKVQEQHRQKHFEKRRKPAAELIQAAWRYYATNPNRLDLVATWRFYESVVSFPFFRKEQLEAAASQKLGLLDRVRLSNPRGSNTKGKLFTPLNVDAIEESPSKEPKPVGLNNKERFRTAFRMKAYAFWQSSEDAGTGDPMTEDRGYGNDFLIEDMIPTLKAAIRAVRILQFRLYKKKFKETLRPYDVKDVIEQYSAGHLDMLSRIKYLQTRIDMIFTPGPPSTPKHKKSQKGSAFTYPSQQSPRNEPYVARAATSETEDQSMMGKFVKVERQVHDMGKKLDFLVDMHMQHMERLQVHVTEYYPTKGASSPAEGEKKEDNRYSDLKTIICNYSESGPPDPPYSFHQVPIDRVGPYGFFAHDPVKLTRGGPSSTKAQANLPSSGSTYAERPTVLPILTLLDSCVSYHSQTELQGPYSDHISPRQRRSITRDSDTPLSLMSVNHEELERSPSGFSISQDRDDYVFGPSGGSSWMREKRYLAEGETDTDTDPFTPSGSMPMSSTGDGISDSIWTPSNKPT

[10] = Vero cell cytotoxicity, cytotoxicity control for M. tuberculosis inhibitor project, purified and synthesized samples, set 8 (AID 602431); assay type: functional; conditions: Mycobacterium tuberculosis
[11] = THP-1 cell cytotoxicity, cytotoxicity control, set 6 (AID 602433); assay type: functional; conditions: Mycobacterium tuberculosis
[12] = target: T3, Sentrin-specific protease 7 (Homo sapiens, UniProt Q9BQF6); assay: SENP7 protease inhibitors, SAR follow-up, biochemical, luminescence (AID 504497); assay type: functional
T3 sequence (Q9BQF6 whole entry): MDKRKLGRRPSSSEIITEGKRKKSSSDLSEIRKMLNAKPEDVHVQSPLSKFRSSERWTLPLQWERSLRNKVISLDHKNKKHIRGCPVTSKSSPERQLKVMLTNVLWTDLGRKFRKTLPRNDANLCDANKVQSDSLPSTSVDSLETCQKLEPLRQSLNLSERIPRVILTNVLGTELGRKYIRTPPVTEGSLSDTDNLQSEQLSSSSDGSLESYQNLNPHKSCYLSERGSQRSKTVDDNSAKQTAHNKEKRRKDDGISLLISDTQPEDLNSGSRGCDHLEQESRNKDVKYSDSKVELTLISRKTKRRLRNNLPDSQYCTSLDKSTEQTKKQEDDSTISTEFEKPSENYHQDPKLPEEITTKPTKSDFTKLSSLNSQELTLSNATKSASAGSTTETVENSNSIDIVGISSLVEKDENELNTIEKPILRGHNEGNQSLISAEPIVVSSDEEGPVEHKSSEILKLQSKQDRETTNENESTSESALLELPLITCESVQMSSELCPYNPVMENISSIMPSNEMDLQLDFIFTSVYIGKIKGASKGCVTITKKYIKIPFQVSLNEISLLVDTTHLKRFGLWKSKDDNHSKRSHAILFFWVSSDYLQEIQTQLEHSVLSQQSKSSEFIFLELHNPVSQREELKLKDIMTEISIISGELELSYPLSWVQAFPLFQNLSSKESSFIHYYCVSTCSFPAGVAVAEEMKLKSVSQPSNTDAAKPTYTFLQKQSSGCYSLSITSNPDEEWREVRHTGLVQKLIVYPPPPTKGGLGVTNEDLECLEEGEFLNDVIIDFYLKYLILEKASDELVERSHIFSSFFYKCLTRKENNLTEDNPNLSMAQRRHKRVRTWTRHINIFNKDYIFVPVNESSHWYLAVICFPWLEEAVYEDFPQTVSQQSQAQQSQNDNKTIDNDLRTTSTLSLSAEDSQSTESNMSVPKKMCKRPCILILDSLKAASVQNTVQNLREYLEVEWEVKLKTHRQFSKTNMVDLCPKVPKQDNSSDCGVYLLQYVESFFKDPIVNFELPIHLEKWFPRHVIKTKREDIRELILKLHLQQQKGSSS

[13] = target: T4, Sentrin-specific protease 8 (Homo sapiens, UniProt Q96LD8); assay: SENP8 protease inhibitors, SAR follow-up, biochemical, luminescence (AID 504501); assay type: functional
T4 sequence (Q96LD8 whole entry): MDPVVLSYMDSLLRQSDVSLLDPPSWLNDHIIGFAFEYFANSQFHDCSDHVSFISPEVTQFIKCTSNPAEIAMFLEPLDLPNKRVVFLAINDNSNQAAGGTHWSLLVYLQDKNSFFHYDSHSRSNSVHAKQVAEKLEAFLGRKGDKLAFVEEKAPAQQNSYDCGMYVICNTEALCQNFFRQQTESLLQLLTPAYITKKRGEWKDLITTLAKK

Caspase-3 = target: T5, Caspase-3 (Homo sapiens, UniProt P42574); assay: SAR Analysis of small molecule inhibitors of Sentrin-specific proteases (SENPs) using a Caspase-3 Selectivity assay. [Related pubchem assays (depositor defined):AID2540, AID2599, AID434973, AID489001]; assay type: functional
T5 sequence (P42574 whole entry): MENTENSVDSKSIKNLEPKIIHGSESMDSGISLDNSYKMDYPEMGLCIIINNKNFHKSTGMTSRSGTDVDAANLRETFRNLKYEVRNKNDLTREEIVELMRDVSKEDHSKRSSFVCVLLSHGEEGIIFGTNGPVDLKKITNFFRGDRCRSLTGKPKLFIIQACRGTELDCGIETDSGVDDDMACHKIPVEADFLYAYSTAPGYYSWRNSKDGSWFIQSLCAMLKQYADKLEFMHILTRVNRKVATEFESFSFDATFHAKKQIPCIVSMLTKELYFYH

[14] = target: T6, Sentrin-specific protease 6 (Homo sapiens, UniProt Q9GZR1); assay: SAR Analysis of small molecule inhibitors of Sentrin-specific protease 6 (SENP6) using a Luminescent assay. [Related pubchem assays (depositor defined):AID2582, AID2599]; assay type: functional
T6 sequence (Q9GZR1 whole entry): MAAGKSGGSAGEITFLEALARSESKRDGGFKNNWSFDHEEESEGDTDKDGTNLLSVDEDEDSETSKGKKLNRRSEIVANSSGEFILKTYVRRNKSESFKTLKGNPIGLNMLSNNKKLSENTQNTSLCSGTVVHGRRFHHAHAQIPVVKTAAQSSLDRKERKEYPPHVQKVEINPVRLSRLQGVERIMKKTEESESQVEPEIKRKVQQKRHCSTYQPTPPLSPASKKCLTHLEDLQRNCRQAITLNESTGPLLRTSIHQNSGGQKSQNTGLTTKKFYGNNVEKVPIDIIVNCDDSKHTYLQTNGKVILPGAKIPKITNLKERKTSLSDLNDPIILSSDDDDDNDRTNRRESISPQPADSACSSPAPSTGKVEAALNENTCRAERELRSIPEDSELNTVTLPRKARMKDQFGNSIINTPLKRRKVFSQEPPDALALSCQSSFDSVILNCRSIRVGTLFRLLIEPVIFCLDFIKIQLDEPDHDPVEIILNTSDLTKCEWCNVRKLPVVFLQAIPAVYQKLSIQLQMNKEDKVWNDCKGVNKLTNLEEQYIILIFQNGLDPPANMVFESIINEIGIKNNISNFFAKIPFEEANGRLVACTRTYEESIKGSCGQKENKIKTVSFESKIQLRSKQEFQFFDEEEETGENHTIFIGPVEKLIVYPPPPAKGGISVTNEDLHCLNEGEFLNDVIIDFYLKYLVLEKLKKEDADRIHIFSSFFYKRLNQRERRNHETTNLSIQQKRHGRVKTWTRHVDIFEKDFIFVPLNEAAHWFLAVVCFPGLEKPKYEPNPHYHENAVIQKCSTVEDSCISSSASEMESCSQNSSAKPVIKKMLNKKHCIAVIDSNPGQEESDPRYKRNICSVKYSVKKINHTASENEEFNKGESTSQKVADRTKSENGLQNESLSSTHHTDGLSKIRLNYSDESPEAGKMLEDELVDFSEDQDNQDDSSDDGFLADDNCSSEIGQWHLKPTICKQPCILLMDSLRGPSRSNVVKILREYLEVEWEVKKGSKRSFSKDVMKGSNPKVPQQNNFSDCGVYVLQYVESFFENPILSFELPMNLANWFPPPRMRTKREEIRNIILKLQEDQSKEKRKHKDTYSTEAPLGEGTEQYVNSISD

O=C(O)c1ccccc1-c1ccc(/C=C/c2cc(C(F)(F)F)nc(O)n2)o1
IC50 (CHO): > 49.8 µM (inactive)
IC50 (Beta-lactamase [1]): 30.2 µM (inactive)
IC50 (Beta Lactamase [2]): 25 µM (inactive)
IC50 (Beta Lactamase [3]): 7 µM (active)
IC50 (Beta-lactamase [4]): 6.74 µM (active)

CCc1sc(C(=O)Nc2ncccc2O)cc1C
AC50 [5]: 29.7 µM (active)
EC50 [6]: > 67.5 µM (inactive)
AC50 (HEK293): 3.71 µM (active)

Cc1cc(C)c(NC(=O)C2CC3CCC2C3)c(C)c1 (configuration not stated)
EC50 [7]: 31.9 µM (active)
EC50 [8]: 410 nM (active) and 369 nM (active) and 230 nM (active)
EC50 [9]: 0.366 µM (active)

O=C(CSc1nc2c(c(=O)[nH]1)CN(Cc1ccccc1)CC2)NC1CCCCC1
CC50 [10]: > 100 µM (inconclusive)
CC50 [11]: > 100 µM (inconclusive)

O=C(Nc1nc2ccc(Cl)cc2s1)c1ccsc1
IC50 [12]: 1.1 µM (active)
IC50 [13]: 0.83 µM (active)
IC50 (Caspase-3): 2.3 µM (active)
IC50 [14]: 0.83 µM (active)
